The source of these data is patent publication US11241441B2, “Formulations of lixivaptan for the treatment of polycystic disease” (PALLADIO BIOSCIENCES, INC., priority 2017, dated 2022).

For series [1] the following is noted: 90/30 mg split daily dosing; cited from earlier work.
The conditions of series [2]: Shoaf, 2013; cited from earlier work.
A further series can be described thus: Measured Log P. The class given is physicochemical.

As to `Cc1ccccc1C(=O)Nc1ccc(C(=O)N2CCCC(O)c3cc(Cl)ccc32)c(C)c1` (stereo not drawn) [tolvaptan], the “individuals with ALT elevations (reported by Woodhead)” value in series [1] was “approximately 8%”. For the same molecule, the “exposure in subjects with impaired renal function compared to healthy individuals” value in series [2] is reported as “increased exposure”. In the series “Measured Log P”, this molecule yielded a logP of more than 3.

Broadly, the logP is a log measure of how a compound divides between an organic and an aqueous phase. A low value points to a more hydrophilic compound.
